Values of other authors, collected in patent US20210268080A1, “IMMUNE STIMULATING COMPOSITIONS FOR THE TREATMENT AND REVENTION OF INFECTIONS WITH INTRACELLULAR PATHOGENS” (priority 2018, published 2021).

Tested on: Trypanosoma cruzi

In the case of `CC[C@@H]([C@H](C)O)n1ncn(-c2ccc(N3CCN(c4ccc(OC[C@@H]5CO[C@@](Cn6cncn6)(c6ccc(F)cc6F)C5)cc4)CC3)cc2)c1=O` [posaconazole], the “efficacy in human studies” value (human, in vivo) is given as “limited efficacy”.

In the case of `O=C(Cn1ccnc1[N+](=O)[O-])NCc1ccccc1` [benznidazole], the “onset of heart disease” value (adults with chronic Chagas infections) is given as “slow the onset”, the cure rate (children aged six to 12 years with chronic disease) is given as “about 60%” and the “patients who fail to complete the drug regimen due to toxicities” value (months-long regimen) is given as roughly 20%. For the same compound, the serum parasite detection (patients with established Chagas cardiomyopathy) was “significantly reduced” and the cardiac clinical deterioration (patients with established Chagas cardiomyopathy, five years of follow-up) was “did not significantly reduce”.
